Experimental data reported in US11629169B2, “Use of peptides as therapeutic agent for autoimmune diseases and bone diseases” (KINE SCIENCES CO., LTD., priority 2017, dated 2023).

Columns and labels:
[1] = tested on: collagen-induced arthritis (CIA) mouse model; assay: Rheumatoid arthritis treatment effect in collagen-induced arthritis (CIA) mouse model; type: in vivo, DBA/1J mouse; settings: CIA mice, intraperitoneally 3 times a week after second immunization; similar efficacy compared to positive control MTX
Procedure: In order to confirm a rheumatoid arthritis improvement effect of the peptides prepared in Example 1, a rheumatoid arthritis mouse model was prepared with reference to a known literature (Nat Protoc. 2007; 2 (5):
Specifically, a CIA mouse model is a mouse model most commonly used in a rheumatoid arthritis animal test as an autoimmune disease arthritis model having characteristics similar to human rheumatoid arthritis. In the CIA mouse model, bovine type II collagen (Chondrex, USA) was mixed and emulsified with a Freund's complete adjuvant (Chondrex, USA) at 1:1, and then first immunization was performed by injecting 50 μl of the emulsified collagen solution intradermally into a 6-week-old DBA/1J mouse tail. On 2 weeks after the first immunization, bovine type II collagen was mixed and emulsified with a Freund's incomplete adjuvant (Chondrex, USA) at 1:1, and then second immunization (boosting) was performed by injecting 50 μl of the emulsified collagen solution induced) intradermally into the mouse tail. After the second immunization, each peptide was intraperitoneally administered 3 times a week from the following day to observe a therapeutic effect of the peptides for rheumatoid arthritis.
In order to examine the progression of rheumatoid arthritis according to the peptide treatment of the present invention, the severity of rheumatoid arthritis over time was evaluated and measured by a rheumatoid arthritis progress index.
At this time, the arthritis progress index was evaluated as Points 0 to 4 per leg in accordance with the arthritis progress evaluation criteria by Rossoliniec, etc. in Table 2 below and shown to total Points 0 to 16 (sum of four legs). Thereafter, an average value of the results evaluated by the two observers was calculated to quantify the severity of arthritis.

[2] = tested on: naive CD4+ T cells extracted from lymph nodes of the mouse; assay: Th17 cell differentiation inhibition (CD4+IL-17+ T cell population); type: cell-based; settings: IL-6 20 ng/ml and TGF-beta 5 ng/ml with TCR activation; peptide 10 ng/ml to 1000 ng/ml; 3 days; induced group 3.14%, non-induced 1.2%
Procedure: In order to confirm the efficacy of the synthetic peptides prepared in Example 1 to inhibit Th17 cell differentiation, naive CD4^+ T cells extracted from lymph nodes of the mouse were treated with IL-6 20 ng/ml and TGF-beta 5 ng/ml together with TCR activation to induce differentiation into Th17 cells.
At the same time, three peptides Pep2, Pep3, and Pep4 disclosed in Table 2 of Test Example 1 were treated at a concentration of 10 ng/ml to 1000 ng/ml, respectively. Then, after incubation for 3 days, CD4+IL-17+ T cell population was analyzed.

PTSPTS (Pep4)
arthritis improvement (arthritis progress index, total Points 0 to 16) [1]: efficacy of arthritis improvement was shown
ratio of Th17 cells (CD4+IL-17+ T cell population) [2]: reduced similarly to the group that did not induce differentiation

PSSPSS (Pep1)
arthritis improvement (arthritis progress index, total Points 0 to 16) [1]: efficacy of arthritis improvement was shown

SSPSSP (Pep2)
arthritis improvement (arthritis progress index, total Points 0 to 16) [1]: efficacy of arthritis improvement was shown
ratio of Th17 cells (CD4+IL-17+ T cell population) [2]: reduced similarly to the group that did not induce differentiation

PTPPTP (Pep3)
ratio of Th17 cells (CD4+IL-17+ T cell population) [2]: reduced similarly to the group that did not induce differentiation

STSSTS (Pep6)
arthritis improvement (arthritis progress index, total Points 0 to 16) [1]: efficacy of arthritis improvement was shown
